Measurements taken from ChEMBL document CHEMBL5247637, “Rational design, synthesis and biological evaluation of novel 2-(substituted amino)-[1,2,4]triazolo[1,5-a]pyrimidines as novel tubulin polymerization inhibitors” (Eur J Med Chem, 2022).

How the values were obtained:
Tubulin (Homo sapiens) = Tubulin (Homo sapiens) (UniProt P68371+Q9H4B7+P0DPH7+P68366+Q13509+Q71U36+P04350+Q3ZCM7+P07437+P68363+Q9BQE3+Q6PEY2+Q13885+Q9BVA1+Q9BUF5); test: Inhibition of tubulin polymerization (unknown origin) at 10 uM incubated for 0.5 hrs in presence of GTP by spectrophotometer analysis relative to control; type: protein-complex assay
Tubulin = test: Inhibition of tubulin polymerization (unknown origin) incubated for 0.5 hrs in presence of GTP by spectrophotometer analysis; type: protein-complex assay, Homo sapiens
A549 = test: Antiproliferative activity against human A549 cells assessed as inhibition of cell growth measured after 48 hrs by MTT assay; type: functional, cell-based; conditions: A549, 48 h
T47D = test: Antiproliferative activity against human T47D cells assessed as inhibition of cell growth measured after 48 hrs by MTT assay; type: functional, cell-based

SMILES | inhibition (Tubulin (Homo sapiens)) [%] | IC50 (Tubulin) [µM] | IC50 (A549) [µM] | IC50 (T47D) [µM]
COc1ccc(C2C(C(C)=O)=C(C)N=C3N=C(c4cc(OC)c(OC)c(OC)c4)NN32)cc1[N+](=O)[O-] (configuration not stated) | 56 | 9.9 | – | –
COc1ccc(/C=C\c2cc(OC)c(OC)c(OC)c2)cc1O [COMBRETASTATIN A4] | – | – | 0.027 | 0.021
COc1ccc(Nc2nc3nccc(-c4cc(OC)c(OC)c(OC)c4)n3n2)cc1O | 43 | 4.9 | – | –
COc1ccc(Nc2nc3nccc(-c4cc(OC)c(OC)c(OC)c4)n3n2)cc1N | 78 | – | – | –
